Measurements from patent US7109338B2, “1,2-disubstituted 1,4-dihydro-4-oxoquinoline compounds” (priority 1999, dated 2006).
Converted amounts (≈) assume the structure as drawn.

Experiments:
[1] = tested on: Poliovirus type 1 (Polio 1, Sabin); assay: microbe, parasite or virus in culture; type: cell-based; conditions: Enterovirus C, HeLa S3, read-out: IC50 Polio 1
[2] = tested on: echovirus type 11 (Echo 11, Gregory); assay: In vitro anti-picornavirus activity (MTT), Echo 11; type: cell-based; conditions: Enterovirus B; HeLa-S3 cells, MTT method, 37° C.
[3] = tested on: coxsackievirus type A7 (CA7); assay: In vitro anti-picornavirus activity (MTT), CA7; type: cell-based; conditions: Coxsackievirus; HeLa-S3 cells, MTT method, 37° C.
[4] = tested on: coxsackievirus type B4 (CB4,JVB); assay: In vitro anti-picornavirus activity (MTT), CB4; type: cell-based; conditions: Coxsackievirus; HeLa cells, MTT method, 37° C.
[5] = tested on: human rhinovirus type 1B (HRV 1B, B632); assay: Anti-rhinovirus activity (MTT), HRV1B; type: cell-based; conditions: Human rhinovirus sp., HRV1B; HeLa (Ohio strain) cells, MTT method, 33° C.; read-out: IC50 HRV1B
HRV 2 (HGP) = assay: Anti-rhinovirus activity (MTT), HRV2; type: cell-based, human rhinovirus; conditions: Human rhinovirus sp., HRV2; HeLa (Ohio strain) cells, MTT method, 33° C.; read-out: IC50 HRV2
HRV 89 (41617-Gallo) = assay: Anti-rhinovirus activity (MTT), HRV89; type: cell-based, human rhinovirus; conditions: Human rhinovirus sp., HRV89; HeLa (Ohio strain) cells, MTT method, 33° C.; read-out: IC50 HRV89
[6] = Cytotoxicity (MTT, without virus), HeLa; conditions: human, HeLa cells (uninfected)
[7] = Cytotoxicity (MTT, without virus), HeLa-S3; conditions: human, HeLa-S3 cells (uninfected)
[8] = Cytotoxicity (MTT, without virus), HeLa(Ohio); conditions: human, HeLa (Ohio strain) cells (uninfected)
HRV1A (E28) = assay: Anti-rhinovirus activity (MTT), HRV1A; type: cell-based, human rhinovirus; conditions: Human rhinovirus sp., HRV1A, HeLa, read-out: IC50 HRV 1A
HRV14 (1059) = assay: Anti-rhinovirus activity (MTT), HRV14; type: cell-based, human rhinovirus; conditions: Human rhinovirus sp., HRV14; HeLa (Ohio strain) cells, MTT method, 33° C.; read-out: IC50 HRV 14

CCn1c(-c2ccccc2)c(C)c(=O)c2cc(C(C)C)ccc21 [Compound A37, 1-Ethyl-2-phenyl-3-methyl-6-isopropyl-1,4-dihydro-4-oxoquinoline]
IC50 [1]: 1.1 µg/mL (≈ 3.6 µM) | IC50 [2]: 0.91 µg/mL (≈ 2.98 µM) | IC50 [3]: 3.8 µg/mL (≈ 12.4 µM) | IC50 [4]: 6.7 µg/mL (≈ 21.9 µM) | IC50 [5]: 1 µg/mL (≈ 3.27 µM) | IC50 (HRV 2 (HGP)): 0.83 µg/mL (≈ 2.72 µM) | IC50 (HRV 89 (41617-Gallo)): 0.54 µg/mL (≈ 1.77 µM) | melting point: 159 to 165 °C | CC50 at 4 days [6]: 11 µg/mL (≈ 36 µM) | CC50 at 4 days [7]: 12 µg/mL (≈ 39.3 µM) | CC50 at 4 days [8]: 11 µg/mL (≈ 36 µM)

Cc1c(-c2ccccc2)n(-c2ccc(Cl)cc2)c2ccc(C(C)C)cc2c1=O [Compound A324, 1-(4-chlorophenyl)-2-phenyl-3-methyl-6-isopropyl-1,4-dihydro-4-oxoquinoline]
IC50 [5]: 0.53 µg/mL (≈ 1.37 µM) | IC50 (HRV 2 (HGP)): 0.12 µg/mL (≈ 0.309 µM) | IC50 (HRV 89 (41617-Gallo)): 0.046 µg/mL (≈ 0.119 µM) | melting point: 233 to 235 °C | CC50 at 4 days [8]: > 1 µg/mL

CCn1c2c(c(=O)c3cc(C(C)C)ccc31)Cc1cc(C)sc1-2 [Compound D51, 10-Ethyl-7-isopropyl-2-methyl-5,10-dihydro-4H-thieno[3′,2′:4,5]cyclopenta[1,2-b]quinolin-5-one]
IC50 [1]: 0.28 µg/mL (≈ 0.866 µM) | IC50 [2]: 0.21 µg/mL (≈ 0.649 µM) | IC50 [3]: 1.1 µg/mL (≈ 3.4 µM) | IC50 [4]: 0.72 µg/mL (≈ 2.23 µM) | IC50 (HRV1A (E28)): 3.1 µg/mL (≈ 9.58 µM) | IC50 [5]: 0.59 µg/mL (≈ 1.82 µM) | IC50 (HRV 2 (HGP)): 0.27 µg/mL (≈ 0.835 µM) | IC50 (HRV14 (1059)): 0.82 µg/mL (≈ 2.54 µM) | IC50 (HRV 89 (41617-Gallo)): 0.35 µg/mL (≈ 1.08 µM) | CC50 at 4 days [6]: > 5 µg/mL | CC50 at 4 days [7]: > 5 µg/mL | CC50 at 4 days [8]: > 5 µg/mL

CCn1c2c(c(=O)c3cc(C(C)C)ccc31)Cc1ccccc1-2 [Compound B2, 5-Ethyl-8-isopropyl-5,10-dihydro-11H-indeno[1,2-b]quinolin-10-one]
IC50 [1]: 0.58 µg/mL (≈ 1.91 µM) | IC50 [2]: 0.19 µg/mL (≈ 0.626 µM) | IC50 [3]: 3.1 µg/mL (≈ 10.2 µM) | IC50 [4]: 0.97 µg/mL (≈ 3.2 µM) | IC50 (HRV1A (E28)): 5 µg/mL (≈ 16.5 µM) | IC50 [5]: 0.54 µg/mL (≈ 1.78 µM) | IC50 (HRV 2 (HGP)): 0.15 µg/mL (≈ 0.494 µM) | IC50 (HRV14 (1059)): 0.65 µg/mL (≈ 2.14 µM) | IC50 (HRV 89 (41617-Gallo)): 0.48 µg/mL (≈ 1.58 µM) | CC50 at 4 days [6]: > 10 µg/mL | CC50 at 4 days [7]: > 10 µg/mL | CC50 at 4 days [8]: > 10 µg/mL

CCn1c2c(c(=O)c3cc(C(C)C)ccc31)Cc1c(C)csc1-2 [Compound D52, 10-Ethyl-7-isopropyl-3-methyl-5,10-dihydro-4H-thieno[3′,2′:4,5]cyclopenta[1,2-b]quinolin-5-one]
IC50 [1]: 1 µg/mL (≈ 3.09 µM) | IC50 [2]: 0.55 µg/mL (≈ 1.7 µM) | IC50 [3]: > 5 µg/mL | IC50 [4]: 3 µg/mL (≈ 9.27 µM) | IC50 (HRV1A (E28)): 3.1 µg/mL (≈ 9.58 µM) | IC50 [5]: 0.89 µg/mL (≈ 2.75 µM) | IC50 (HRV 2 (HGP)): 0.86 µg/mL (≈ 2.66 µM) | IC50 (HRV14 (1059)): 1.1 µg/mL (≈ 3.4 µM) | IC50 (HRV 89 (41617-Gallo)): 0.85 µg/mL (≈ 2.63 µM) | melting point: 195 °C (dec.) | CC50 at 4 days [6]: > 5 µg/mL | CC50 at 4 days [7]: > 5 µg/mL | CC50 at 4 days [8]: > 5 µg/mL
